Measurements published in PMC12398856, “A GLP-1 analogue optimized for cAMP-biased signaling improves weight loss in obese mice” (Molecular Metabolism, 2025).

Legend:
GLP-1R [1] = molecular target: T1, GLP-1R (Homo sapiens, UniProt P43220); assay: BRET-based cAMP production assay (CAMYEL sensor) in GLP-1R+ HEK293T cells; format: cell-based; parameters: host or cells: HEK293T (ATCC), transient transfection with Lipofectamine 2000
Target sequence in this assay (P43220 24-463): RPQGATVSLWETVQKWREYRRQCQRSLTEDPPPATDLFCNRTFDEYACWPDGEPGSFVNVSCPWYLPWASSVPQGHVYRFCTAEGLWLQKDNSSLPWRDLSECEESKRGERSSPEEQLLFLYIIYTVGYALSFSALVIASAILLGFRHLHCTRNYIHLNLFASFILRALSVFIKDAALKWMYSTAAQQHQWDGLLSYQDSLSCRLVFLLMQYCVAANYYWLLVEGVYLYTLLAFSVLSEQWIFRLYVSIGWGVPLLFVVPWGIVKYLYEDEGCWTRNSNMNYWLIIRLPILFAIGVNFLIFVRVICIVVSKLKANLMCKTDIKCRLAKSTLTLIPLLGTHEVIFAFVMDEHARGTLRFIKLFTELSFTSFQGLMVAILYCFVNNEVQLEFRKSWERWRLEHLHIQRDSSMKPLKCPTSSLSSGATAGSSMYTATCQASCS
Procedure: Briefly, HEK293T cells (ATCC) were cultured in Dulbecco's Modified Eagle Medium (DMEM) supplemented with 10% heat-inactivated fetal bovine serum (FBS), 100 IU/mL of penicillin, and 100 mg/mL of streptomycin solution. […] BRET measurements were taken every 60 s using a PHERAstar FS multi-mode microplate reader. Ligand-induced dynamics in GLP-1R signaling or trafficking were measured as subsequent changes relative to baseline (after time point zero). Each experiment was independently performed at least three times, with at least three technical replicates for each group. Positive or negative incremental areas under the curve (iAUC) were calculated and represented for dose–response relationships.

GLP-1R [2] = molecular target: T1, GLP-1R; assay: CRE-Luciferase reporter assay (cAMP production) in BHK cells expressing GLP-1R; format: cell-based; conditions: read-out: Log(data) cAMP EC50 (converted)
Target sequence in this assay (P43220 24-463, species assumed): as the sequence (P43220 24-463) above
Procedure: Briefly, stably transfected baby hamster kidney (BHK) cell lines expressing GLP-1R and firefly luciferase reporter gene linked to the cAMP response element (CRE) were seeded in poly-D-lysine-coated 96 well opaque well tissue culture plates at 5,000 cells per well in growth media, incubated overnight, and washed once in Dulbecco's phosphase-buffered saline (DPBS). To each well was added 50 μL of assay buffer (DMEM without phenol red, 10 mM HEPES, 1 × Glutamax, 1% ovalbumin, 0.1% Pluronic F-68) containing serial dilutions of test compounds. The test plates were incubated at 37 °C for 3 h in a CO2 incubator, then washed once with 100 uL per well of DPBS followed by addition of 100 μL per well of SteadyLite plus reagent (PerkinElmer). The assay plates were covered to protect reagent from light, shaken at 250 rpm at room temperature for 30 min, and read in a microtiter plate reader. EC50 values were calculated using Prism software (GraphPad) as the nonlinear regression of log(compound concentration) vs. response.

GLP-1R [3] = molecular target: T1, GLP-1R; assay: β-arrestin recruitment (Barr) at GLP-1R, Supplemental Table 1; format: cell-based; conditions: negative log10 of EC50; read-out: Log(data) Barr EC50 (converted)
Target sequence in this assay (P43220 24-463, species assumed): as the sequence (P43220 24-463) above

in vivo = conditions: mouse, sc, t1/2
Procedure: Thus, the PK profiles are an overall average of 8 mice/group and 4 mice/subgroup sampled at each time point. […] Briefly, plasma concentration–time profiles were analyzed by a non-compartmental method (Pharsight Phoenix WinNonLin v.6.4). The terminal half-life (t1/2), maximum plasma concentration (Cmax), time for maximum plasma concentration (tmax), and AUC from zero to last (AUC0-t) were determined.
Briefly, plasma proteins were precipitated by mixing plasma samples with 6 volumes of methanol-containing internal standard in micronic 1.5 mL microcentrifuge tubes, followed by centrifugation for 20 min at 13,000×g. The supernatant was transferred to a 96-well plate and diluted with water containing 0.1% formic acid and mixed thoroughly. Diluted samples were injected into the LC-MS/MS system. […] The mass spectrometric detection was performed on a Thermo Scientific TSQ Quantis triple quadrupole system with electrospray ionization in positive ion mode.

Question: For CC[C@H](C)[C@H](NC(=O)[C@H](Cc1ccccc1)NC(=O)[C@H](CCC(=O)O)NC(=O)[C@H](CCCNC(=N)N)NC(=O)[C@H](C)NC(=O)[C@H](C)NC(=O)[C@H](CCC(N)=O)NC(=O)[C@H](CCC(=O)O)NC(=O)[C@H](CCC(=O)O)NC(=O)[C@H](CC(C)C)NC(=O)[C@H](Cc1ccc(O)cc1)NC(=O)[C@H](CO)NC(=O)[C@H](CO)NC(=O)[C@@H](NC(=O)[C@H](CC(=O)O)NC(=O)[C@H](CO)NC(=O)[C@@H](NC(=O)[C@H](Cc1ccccc1)NC(=O)[C@@H](NC(=O)CNC(=O)[C@H](CCC(=O)O)NC(=O)[C@H](Cc1c[nH]c2ccccc12)NC(=O)CCc1c[nH]cn1)[C@@H](C)O)[C@@H](C)O)C(C)C)C(=O)N[C@@H](C)C(=O)N[C@@H](Cc1c[nH]c2ccccc12)C(=O)N[C@@H](CC(C)C)C(=O)N[C@H](C(=O)N[C@@H](CCCNC(=N)N)C(=O)NCC(=O)N[C@@H](CCCNC(=N)N)C(=O)N[C@@H](CCCCNC(=O)COCCOCCNC(=O)COCCOCCNC(=O)CC[C@H](NC(=O)CCCCCCCCCCCCCCCCC(=O)O)C(=O)O)C(=O)O)C(C)C [NNC5840], which EC50 (GLP-1R [1]) is on record?
Answer: 73.9 nM

Question: And the EC50 (GLP-1R [2])?
Answer: 0.0192 nM

Question: What about the EC50 (GLP-1R [3]) of the same compound?
Answer: 20.1 nM

Question: What about the half-life (in vivo) of the same compound?
Answer: 21.7 h
